Data on 40 compounds can be found in patent publication US20240101531A1, “PYRIDINAMINE DERIVATIVES AND THEIR USE AS POTASSIUM CHANNEL MODULATORS” (Xenon Pharmaceuticals Inc., priority 2022, published 2024).

pEC50: −log10 of the molar value. Where a name gives a salt, the structure may show the parent alone. Some results are limits rather than exact numbers.

For the assay, the target named is human KV7.2/KV7.3 (Homo sapiens (Human), UniProt O43525+O43526). Nature of the assay: Potassium flux assay (IPG-2 AM dye). The assay is classed as cell-based. Conditions: TREX HEK 293 or HEK 293 cells expressing human KV7.2/KV7.3; arithmetic mean values. In short, it runs like this: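 HEK 293 or TREX HEK 293 cells stably expressing human KV7.2/KV7.3 (tetracycline-induced where needed), loaded with IPG-2 AM, then compound for 20 min at room temperature. Flux triggered by K challenge buffer (10 mM KCl, pH 7.4), read at 530/558 nm; EC50 from 16-point 2-fold series from 30 μM, normalised to DMSO and reference modulator.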
`Cc1cc2ccccc2c(Nc2ccc(Cl)nc2)n1` [Example 398, N-(6-chloropyridin-3-yl)-3-methylisoquinolin-1-amine]: the pEC50 is at most 4.52. For the compound `Clc1ccc(Nc2nccc3cc(OCCCCCn4cncn4)ccc23)cn1` [Example 168, 6-((5-(1H-1,2,4-triazol-1-yl)pentyl)oxy)-N-(6-chloropyridin-3-yl)isoquinolin-1-amine], the pEC50 was 5.00 to 6.00. For `FC(F)(F)OCCOc1ccc2c(Nc3ccc(Cl)nc3)nccc2c1` [Example 184, N-(6-chloropyridin-3-yl)-6-(2-(trifluoromethoxy)ethoxy)isoquinolin-1-amine], the pEC50 is 5.00 to 6.00. Turning to `Clc1ccc(Nc2nccc3cc(OCC4COCCO4)ccc23)cn1` (stereo not shown) [Example 154, 6-((1,4-dioxan-2-yl)methoxy)-N-(6-chloropyridin-3-yl)isoquinolin-1-amine], the pEC50 was above 6.00.

Turning to `O=C(N[C@H]1CCC[C@@H](Oc2ccc3c(Nc4cnc(Cl)nc4)nccc3c2)C1)C(F)(F)F` [Example 377, N-((1 S,3R)-3-((1-((2-chloropyrimidin-5-yl)amino)isoquinolin-6-yl)oxy)cyclohexyl)-2,2,2-trifluoroacetamide], the pEC50 was above 6.00. As for `FC(F)Cn1cc(COc2ccc3c(Nc4ccc(Cl)nc4)nccc3c2)cn1` [Example 380, N-(6-chloropyridin-3-yl)-6-((1-(2,2-difluoroethyl)-1H-pyrazol-4-yl)methoxy)isoquinolin-1-amine], the pEC50 was above 6.00. Turning to `Cc1ncc(Nc2nccc3cc(OCC4CCC(C)(C)O4)ccc23)cn1` (stereo not shown) [Example 27, 6-((5,5-dimethyltetrahydrofuran-2-yl)methoxy)-N-(2-methylpyrimidin-5-yl)isoquinolin-1-amine], the negative-log EC50 (pEC50) is 5.00 to 6.00. Consider `Clc1ccc(Nc2nccc3cc(OCc4cnsc4)ccc23)cn1` [Example 301, N-(6-chloropyridin-3-yl)-6-(isothiazol-4-ylmethoxy)isoquinolin-1-amine], for which the pEC50 was above 6.00. With `Clc1ccc(Nc2nccc3cc(OCC4CC45CCC5)ccc23)cn1` (stereo not shown) [Example 332, N-(6-chloropyridin-3-yl)-6-(spiro[2.3]hexan-1-ylmethoxy)isoquinolin-1-amine], the pEC50 was 5.00 to 6.00. Then `Clc1ccc(Nc2nccc3cc(Cc4ccccn4)ccc23)cn1` [Example 426, N-(6-chloropyridin-3-yl)-6-(pyridin-2-ylmethyl)isoquinolin-1-amine], with 5.00 to 6.00; and `FC1(COc2ccc3c(Nc4ccc(C(F)(F)F)nc4)nccc3c2)CC1` [Example 47, 6-((1-fluorocyclopropyl)methoxy)-N-(6-(trifluoromethyl)pyridin-3-yl)isoquinolin-1-amine], with at most 4.52.

In the case of `Clc1ccc(Nc2nccc3cc(Cn4nccn4)ccc23)cn1` [Example 425, 6-((2H-1,2,3-triazol-2-yl)methyl)-N-(6-chloropyridin-3-yl)isoquinolin-1-amine], the pEC50 is 5.00 to 6.00. Then `Cn1cc(F)c(COc2ccc3c(Nc4ccc(Cl)nc4)nccc3c2)n1` [Example 397, N-(6-chloropyridin-3-yl)-6-((4-fluoro-1-methyl-1H-pyrazol-3-yl)methoxy)isoquinolin-1-amine formate], with above 6.00; and `Cn1ccnc1COc1ccc2c(Nc3ccc(Cl)nc3)nccc2c1` [Example 198, N-(6-chloropyridin-3-yl)-6-((1-methyl-1H-imidazol-2-yl)methoxy)isoquinolin-1-amine], with 5.00 to 6.00; and `CO[C@H](C)c1ccc2c(Nc3ccc(Cl)nc3)nccc2c1` [Example 132, (R)-N-(6-chloropyridin-3-yl)-6-(1-methoxyethyl)isoquinolin-1-amine], with 4.52 to 5.00.

Take `CS(=O)(=Nc1ccc2c(Nc3ccc(Cl)nc3)nccc2c1)C1COC1` (stereo not shown) [Example 275, ((1-((6-chloropyridin-3-yl)amino)isoquinolin-6-yl)imino)(methyl)(oxetan-3-yl)-λ^6-sulfanone]: the pEC50 was 5.00 to 6.00. On to `Cn1nccc1-c1ccc2c(Nc3ccc(Cl)nc3)nccc2c1` [Example 422, N-(6-chloropyridin-3-yl)-6-(1-methyl-1H-pyrazol-5-yl)isoquinolin-1-amine], for which the pEC50 is 5.00 to 6.00. Regarding `Clc1ccc(Nc2nccc3cc(OCn4cccn4)ccc23)cn1` [Example 82, 6-((1H-pyrazol-1-yl)methoxy)-N-(6-chloropyridin-3-yl)isoquinolin-1-amine], the pEC50 was 5.00 to 6.00.

For the compound `Clc1ccc(Nc2nccc3cc(OCC4(OCc5ccncc5)CC4)ccc23)cn1` [Example 362, N-(6-chloropyridin-3-yl)-6-((1-(pyridin-4-ylmethoxy)cyclopropyl)methoxy)isoquinolin-1-amine], the pEC50 is 5.00 to 6.00. Then `COC(=O)C1COCCN1CCOc1ccc2c(Nc3ccc(Cl)nc3)nccc2c1` (stereo not shown) [Example 320, methyl 4-(2-((1-((6-chloropyridin-3-yl)amino)isoquinolin-6-yl)oxy)ethyl)morpholine-3-carboxylate], with 5.00 to 6.00; and `FC(F)(F)C1(COc2ccc3c(Nc4ccc(Cl)nc4)nccc3c2)CC1` [Example 231, N-(6-chloropyridin-3-yl)-6-((1-(trifluoromethyl)cyclopropyl)methoxy)isoquinolin-1-amine formate], with above 6.00; and `CCCOc1ccc2c(Nc3ccc(Cl)nc3)nccc2c1` [Example 3, N-(6-chloropyridin-3-yl)-6-propoxyisoquinolin-1-amine], with 5.00 to 6.00. As for `COc1nn(C)cc1COc1ccc2c(Nc3ccc(Cl)nc3)nccc2c1` [Example 166, N-(6-chloropyridin-3-yl)-6-((3-methoxy-1-methyl-1H-pyrazol-4-yl)methoxy)isoquinolin-1-amine], the pEC50 is above 6.00. As to `Clc1ccc(Nc2nccc3cc(OC4CCC45COC5)ccc23)cn1` (stereo not shown) [Example 290, 6-((2-oxaspiro[3.3]heptan-5-yl)oxy)-N-(6-chloropyridin-3-yl)isoquinolin-1-amine], the pEC50 was above 6.00. As to `CC(C)C(C)(N)COc1ccc2c(Nc3ccc(Cl)nc3)nccc2c1` (stereo not shown) [Example 176, 6-(2-amino-2,3-dimethylbutoxy)-N-(6-chloropyridin-3-yl)isoquinolin-1-amine hydrochloride], the pEC50 was 4.52 to 5.00. With `Cc1ncc(Nc2nccc3cc(OCC4(C#N)CC4)ccc23)cn1` [Example 88, 1-(((1-((2-methylpyrimidin-5-yl)amino)isoquinolin-6-yl)oxy)methyl)cyclopropane-1-carbonitrile], the pEC50 was 5.00 to 6.00. Turning to `Clc1ccc(Nc2nccc3cc(OCc4ccccc4)ccc23)cn1` [Example 76, 6-(benzyloxy)-N-(6-chloropyridin-3-yl)isoquinolin-1-amine], the negative-log EC50 (pEC50) is at most 4.52. Then `C[C@@H](Oc1ccc2c(Nc3ccc(Cl)nc3)nccc2c1)c1cnn(C)c1` [Example 171, (R)—N-(6-chloropyridin-3-yl)-6-(1-(1-methyl-1H-pyrazol-4-yl)ethoxy)isoquinolin-1-amine], with above 6.00; and `CC1(C)CCC(COc2ccc3c(Nc4ccc(Cl)nc4)nccc3c2)O1` (stereo not shown) [Example 6, N-(6-chloropyridin-3-yl)-6-((5,5-dimethyltetrahydrofuran-2-yl)methoxy)isoquinolin-1-amine], with 5.00 to 6.00; and `Clc1ccc(Nc2nccc3cc(O[C@@H]4CCCN(Cc5ccccc5)C4)ccc23)cn1` [Example 108, (R)-6-((1-benzylpiperidin-3-yl)oxy)-N-(6-chloropyridin-3-yl)isoquinolin-1-amine], with 5.00 to 6.00. As to `CC1(CCOc2ccc3c(Nc4ccc(Cl)nc4)nccc3c2)COC1` [Example 98, N-(6-chloropyridin-3-yl)-6-(2-(3-methyloxetan-3-yl)ethoxy)isoquinolin-1-amine], the pEC50 was 5.00 to 6.00.

As to `Cn1cc(Oc2ccc3c(Nc4ccc(Cl)nc4)nccc3c2)cn1` [Example 311, N-(6-chloropyridin-3-yl)-6-((1-methyl-1H-pyrazol-4-yl)oxy)isoquinolin-1-amine], the pEC50 was 5.00 to 6.00. Regarding `Clc1ccc(Nc2nccc3cc(OCc4c[nH]nc4Cl)ccc23)cn1` [Example 337, 6-((3-chloro-1H-pyrazol-4-yl)methoxy)-N-(6-chloropyridin-3-yl)isoquinolin-1-amine], the pEC50 was 5.00 to 6.00.

For the compound `[2H]C([2H])(Oc1ccc2c(Nc3ccc(Cl)nc3)nccc2c1)c1cnn(C)c1` [Example 386, N-(6-chloropyridin-3-yl)-6-((1-methyl-1H-pyrazol-4-yl)methoxy-d2)isoquinolin-1-amine], the pEC50 was above 6.00.

Consider `CS(=O)(=Nc1ccc2c(Nc3ccc(Cl)nc3)nccc2c1)C1CC1` (stereo not shown) [Example 268, ((1-((6-chloropyridin-3-yl)amino)isoquinolin-6-yl)imino)(cyclopropyl)(methyl)-λ^6-sulfanone], for which the pEC50 was above 6.00.

Consider `CC1(COc2ccc3c(Nc4ccc(Cl)nc4)nccc3c2)CC1` [Example 179, N-(6-chloropyridin-3-yl)-6-((1-methylcyclopropyl)methoxy)isoquinolin-1-amine], for which the pEC50 is 5.00 to 6.00. Under `Cc1ncc(Nc2nccc3cc(OCc4cnn(C)c4)ccc23)cn1` [Example 205, 6-((1-methyl-1H-pyrazol-4-yl)methoxy)-N-(2-methylpyrimidin-5-yl)isoquinolin-1-amine] stands above 6.00; under `FC1(COc2ccc3c(Nc4ccc(Cl)nc4)nccc3c2)CCOC1` (stereo in doubt) [Example 364, (R)—N-(6-chloropyridin-3-yl)-6-((3-fluorotetrahydrofuran-3-yl)methoxy)isoquinolin-1-amine], above 6.00; under `F[C@@H]1C[C@H]1COc1ccc2c(Nc3ccc(Cl)nc3)nccc2c1` [Example 413, N-(6-chloropyridin-3-yl)-6-(((1S,2R)-2-fluorocyclopropyl)methoxy)isoquinolin-1-amine], 5.00 to 6.00. Take `Clc1ccc(Nc2nccc3cc(OC[C@H]4CCCN4Cc4ccccc4)ccc23)cn1` [Example 280, (R)-6-((1-benzylpyrrolidin-2-yl)methoxy)-N-(6-chloropyridin-3-yl)isoquinolin-1-amine]: the pEC50 is 5.00 to 6.00.
